This is an account of results in US12187758B2 (ROME Therapeutics, Inc., priority 2022, dated 2025).

Where two headings read alike, the source gives them in different places.

Type in all cases: cell-based
Experiment [1] deals with THP1-Dual KO-TREX1 cells. Put plainly: THP1 TREX1 KO inhibition assay, combination dosing. The settings on record: Homo sapiens, THP1-Dual, read-out: EC50 of Stampidine. How it is done: Exemplary compounds were tested to determine the effect of combined dosing of two compounds on the type 1 interferon response in THP1 Dual TREX1 KO cells treated with 5-aza-2′-deoxycytidine. Assay procedures and results are described below.
THP1 Dual TREX1 KO cells were purchased from InvivoGen. The THP1-Dual™ KO-TREX1 cells were cultured in RPMI 1640, 10% heat-inactivated fetal bovine serum, 25 mM HEPES, 10 μg/mL blasticidin, and 100 μg/mL Zeocin. THP1-Dual™ KO-TREX1 cells were treated with a dose titration of test compound in the presence of 1 μM 5-aza-2′-deoxycytidine (Sigma, cat #189825). Type 1 Interferon and cell viability were assessed after five days of treatment.
Stock solution of test compounds stampidine and Compound 2 were prepared in DMSO followed by a three-fold dilution in DMSO. The plate was prepared with a matrix of test compound concentrations, with stampidine on the y-axis (final concentrations 3 μM to 0.0003 μM) and Compound 2 on the x-axis (final concentrations 0.3 μM to 0.00003 μM). Additional 50× dilution was prepared in cell culture media for each dilution. 10 μL of diluted test compound was then added to a 384-well plate.
THP1-Dual™ KO-TREX1 cells were treated with 1 μM 5-aza-2′-deoxycytidine. THP1-Dual™ KO-TREX1 cells (50 μL) were added to each well of the 384-well plate containing test compound titration at 10,000 cells/well. Cells were incubated at 37° C., 5% CO2 in a humidified incubator for five days. On day five, 20 μL of cell supernatant was transferred to a 384-well, white-walled plate, followed by addition to each well of 50 μL of QUANTI-LUC solution containing stabilizer. Luminescence was detected on a plate reader according to manufacturer's instructions. Percent inhibition of interferon was calculated using the following analysis: (Average DMSO-Sample)/(Average DMSO-Average 30 μM stampidine)*100.
The remaining cells were assessed for cell viability by adding 30 μl of CellTiter-Glo (Promega, G9683) solution to each well, and placed on a shaker for 10 minutes at room temperature. Luminescence was detected on a plate reader, according to manufacturer's instructions. Percent inhibition of cell viability using CellTiter-Glo was calculated using the following analysis: (Average DMSO−Sample)/(Average DMSO−Average 20 μM viability control reagent)*100.
Combination analysis was performed using the Bivariate Response to Additive Interacting Doses (BRAID) according to Twarog, N. R., et al. Scientific Reports 6:25523 (DOI: 10.1038/srep25523). The best BRAID fit was determined to be k 2.00 (0.583-3.64), where k>0 denotes synergy, k=0 denotes additivity, and k<0 denotes antagonism. Potentiation modeling curves are provided for potentiation of Compound 2 at four concentrations of stampidine (FIG. 7A) and for potentiation of stampidine at four concentrations of Compound 2 (FIG. 7B).

Experiment [2] relates to THP1-Dual KO-TREX1 cells. Put plainly: THP1 TREX1 KO inhibition assay (type 1 interferon response). As to conditions: Homo sapiens, 144 h, type 1 interferon (QUANTI-LUC), 1 μM 5-aza-2′-deoxycytidine, six days. The method in brief: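 THP1-Dual KO-TREX1 cells were treated with a dose titration of compound, alone or with 1 μM 5-aza-2′-deoxycytidine, for six days at 37 °C. Type 1 interferon was read as secreted luciferase (QUANTI-LUC) in the supernatant, and viability by CellTiter-Glo luminescence.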

The subject of experiment [3] is human PBMC. Put plainly: Decitabine-stimulated human PBMC assay. The settings on record: PBMCs, anti-CD3/anti-CD28, decitabine 10 μM, 5 days; FIGS. 3A and 3B. How it is done:
EasySep buffer (32 mL, […] Technologies, cat. #20144) was used to dilute 8 mL of LRSC buffy coat (from fresh Leukopak) with gentle mixing. The diluted buffy coat (20 mL) was transferred into each of two SepMate 50 tubes, and the tubes were filled with 15 mL of Lyphoprep ([…], cat. #07851) density gradient. The SepMate tubes were then centrifuged at 1200 G for 10 minutes at room temperature with the brake on. The top layer of supernatant was collected in SepMate tubes by quickly pouring it into a new 50 mL conical tube. The PBMCs were washed with EasySep buffer×2 by centrifuging at 300 G for 5 minutes. The cells were resuspended in 30 mL of EasySep and centrifuged at 100 G for 5 minutes with the brake off, and the platelets were removed. The cells were then resuspended in 6 mL of 1×RBC lysis buffer (Invitrogen) and incubated at 37° C. for 5 minutes. 25 mL of EasySep buffer was then mixed into the tube and centrifuged at 300 G for 5 minutes. The cells were resuspended in 10 mL of EasySep buffer and the cells were then counted with Cellometer (AO/PI). The PBMCs were resuspended in RPMI1640 (ThermoFisher)+ 10% FBS (HyClone)+μ/s at 3×10^6/mL. The PBMCs (100 μL, 300 k PBMCs) were then seeded in a 96-well flat bottom microplate (Corning) that had been precoated with 100 μL of anti-CD3 antibody (10 μg/mL in PBS, Biolegend) or PBS at 4° C., one day before the assay was commenced.
To each well the following solutions were added 1) 100 μL of cells (final cell number per well is 3×10^5 cell/well); 2) 25 μL of anti-CD28 antibody at 6× (5 μg/mL final concentration, Biolegend); 3) 25 μL of decitabine at 6× (10 μM final concentration); and 4) Compound in DMSO was dispensed directly into each well with a d300e digital dispenser (Tecan). The final concentration of DMSO for each well was normalized to 0.3%. The plate was incubated at 37° C. without any agitation for 5 days. Samples were collected 120 hours after incubation to determine IFN-β […] levels using a U-PLEX Human IFN-β Assay Sector (5PL) (MSD, cat. #K151VIK-2).
After 5 days, the plate was spun down at 100×G for 5 minutes. Supernatants (100 μL) were collected for interferon R (IFN-0) analysis using the MSD assay noted above, and any residual supernatant was stored at −80° C.

A short description of experiment [4]: Mitochondria toxicity assay with PC3 cells, in-cell ELISA COX-1. The settings on record: 5 days treatment. The method in brief:
(§1)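 This in-cell ELISA was run on fixed, permeabilized PC3 cells after 5-day exposure to titrated compound, with cytotoxicity measured on a duplicate plate. Results are reported as categories A (<1.0 μM) to E (>100.0 μM).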

Experiment [5] concerns SDH-A (succinate dehydrogenase-A). Put plainly: Mitochondria toxicity assay with PC3 cells, in-cell ELISA SDH-A. As to conditions: 5 days treatment. In short, it runs like this: as §1
Experiment [6] relates to PC3 cells. Put plainly: Mitochondria toxicity assay with PC3 cells, cytotoxicity (Cell Titer Glo). As to conditions: Homo sapiens, PC-3, 120 h, 5 days treatment. The method in brief: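 Cytotoxicity reported in μM bins, A <1.0 through E >100.0. Measured via Cell Titer Glo luminescence (30 min, room temperature) after 5-day dose-titration treatment of PC3 cells, grown in F-12K/10% FBS, at 37° C, 5% CO2.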

For the compound `COC(=O)C(C)NP(=O)(OC[C@@H]1C=C[C@H](n2cc(C)c(=O)[nH]c2=O)O1)Oc1ccc(Br)cc1` (stereo partly drawn) [Stampidine, stampidine, reference compound], the EC50 in experiment [1] (Compound 2 0 μM) stood at 115 nM; in experiment [1] (Compound 2 0.0001 μM), 103 nM; in experiment [1] (Compound 2 0.001 μM), 80 nM; in experiment [1] (Compound 2 0.01 μM) it was 29 nM.

Take `C#C[C@]1(CO)O[C@@H](n2cnc3c(N)nc(F)nc32)C[C@@H]1O` [Compound 23, (2R,3S,5R)-5-(6-amino-2-fluoro-9H-purin-9-yl)-2-ethynyl-2-(hydroxymethyl) tetrahydrofuran-3-ol]: the half-inhibitory concentration (IC50) in experiment [2] is more than 1000 nM; in experiment [4], 10000 to 50000 nM; in experiment [5], 50000 to 100000 nM; in experiment [6] it was 10000 to 50000 nM. Also, in experiment [3], the IFN-β production result is reported as “activated production of IFN-β”.
